The values that follow are results of earlier work, collected in US5010056A, “Pharmaceutical composition for intranasal administration, comprising GH-releasing hormone, a cholinergic agonist and optionally a bile salt” (priority 1987, dated 1991).

Like-named read-outs stand apart in the source and are kept apart here.

For one data set, the system named is GH secretion. The following applies: previous administration of an oral dose.
For data set [1] the following is noted: orally administered.

With `CN(C)C(=O)Oc1ccc[n+](C)c1` [pyridostigmine], the “effect on GH secretion and on the effect of intravenously injected GHRH” value with GH secretion is “able to stimulate GH secretion and significantly increase the effect of intravenously injected GHRH”. The bioavailability result in data set [1] is recorded as “low”.

In the case of GH-releasing hormone [GHRH], the bioavailability result (nasal administration) is recorded as “low”. For the same compound, the “doses required nasally to obtain comparable effects, relative to parenteral doses” value (nasal versus parenteral administration) was 300-1000 times the parenteral doses.
